EC50 data for 1 compound are collected here from ChEMBL document CHEMBL3108688, “4-Thiazolidinones: the advances continue…” (Eur J Med Chem, 2014).

The test concerns Tacaribe virus. Description: Antiviral activity against Tacaribe virus TRVL11573. Format: functional, organism-based. The following applies: Mammarenavirus tacaribeense.

≈ marks a conversion by molar mass, not a printed value.

As usually defined, the EC50 is the concentration giving half of the maximal effect. For the compound `COc1ccc(NC(=O)CC2SC(N3N=C(c4ccccc4)CC3c3ccc(OC)cc3)=NC2=O)cc1` (stereo unspecified), the EC50 was determined as 0.71 µg/mL (≈ 1.38 µM).
